Measurements from publication PMC12197210, “mPEG-PCL Nanoparticles to Improve Oral Bioavailability of Acalabrutinib: Effect of Polymer Lipophilicity and Hydrophilicity on Physicochemical Properties and In Vivo Performance in Rats” (Pharmaceutics, 2025).
Values after ≈ are worked out from the molar mass of the structure shown. Read-outs that look alike come from different tables or passages of the source.

Experiments:
[1] = cited from earlier work
[2] = system: P-glycoprotein (P-gp) efflux transporter; parameters: method as in earlier work; conditions: cited from earlier work
[3] = parameters: method as in earlier work; conditions: cited from earlier work
[4] = In vitro dissolution/drug release, USP Type II apparatus, membrane-less method; type: physicochemical
Experimental: A membrane-less method using a USP Type II dissolution apparatus (Manual operating model with 8 stations, Electrolab (India) Pvt. Ltd., Mumbai, India) was employed to evaluate the dissolution and drug release behavior of both bulk ACP and freeze-dried ACP-PLHNs (both types, equivalent to 100 mg free base) under physiological pH conditions. The gastrointestinal pH was simulated with three different buffer solutions: a 0.1 N HCl buffer (pH 1.2 ± 0.02, volume = 250 mL) representing the fasted stomach; an acetate buffer (pH 4.5 ± 0.02, volume = 250 mL) representing the fed stomach; and a phosphate buffer solution (PBS, pH 6.8 ± 0.02, volume = 900 mL) representing the intestinal environment. To simulate blood/plasma conditions, 500 mL of PBS (pH 7.2 ± 0.02) was used. To maintain sink conditions, 0.5% w/v sodium dodecyl sulfate (SDS) was added to media with pH ≥ 4.5, and the volume of medium was kept at 3× the volume required to maintain the saturation solubility of ACP. The formulations were dispersed in the dissolution media, which was continuously stirred at 75 rpm and maintained at 37 ± 2 °C. Samples (1000 μL) were withdrawn at specific time intervals and replaced with an equal volume of fresh media (pre-heated to 37 ± 2 °C). The samples were then centrifuged at 15,373× g for 5 min, and the supernatant was collected, diluted with the mobile phase (methanol and a 10 mM ammonium acetate buffer, pH 3.5, in a 52:48 v/v ratio), and analyzed using the HPLC-UV method outlined in Section 2.3.3. The dissolution data were fitted to different mathematical models to determine the drug release kinetics. The best-fitting model was identified based on the regression coefficient.

CYP3A enzyme system = system: CYP3A enzyme system; parameters: method as in earlier work; conditions: cited from earlier work

For CC#CC(=O)N1CCC[C@H]1c1nc(-c2ccc(C(=O)Nc3ccccn3)cc2)c2c(N)nccn12 [ACP, Acalabrutinib], the aqueous solubility ([1]; pH 1) is given as 29200 µg/mL (≈ 62700 µM), the aqueous solubility ([1]; pH 4.5) is given as 159 µg/mL (≈ 342 µM) and the aqueous solubility ([1]; pH 6.8) is given as 52.3 µg/mL (≈ 112 µM). The “solubility” value ([1]; pH values above 6) was “practically insoluble”, the “P-gp efflux transporter substrate status” value [2] was “substrate” and the oral bioavailability [3] was 25 ± 11%. For the same molecule, the “time to complete dissolution” value ([4]; pH 1.2, sink conditions) was at most 30 min, the “time to complete dissolution” value ([4]; pH 4.5, sink conditions) was at most 30 min and the “time of complete (100%) release/dissolution” value ([4]; pH 6.8, sink conditions) was at most 2 h. The “time of complete (100%) release/dissolution” value ([4]; pH 7.2, sink conditions) was at most 4 h and the “metabolism by CYP3A” value (CYP3A enzyme system) was “metabolized by the CYP3A enzyme system”.
